Test results taken from patent US20240254138A1, “TRICYCLIC PYRIMIDINES AS CYCLIN-DEPENDENT KINASE 7 (CDK7) INHIBITORS” (JANSSEN PHARMACEUTICA NV, priority 2021, published 2024).

What was measured:
[1] = tested on: RNA Polymerase II Serine 5 phosphorylation in A549 cells overexpressing CDK7-mutant (C312S); assay: Imaging-based cellular RNA PolII Ser5 phosphorylation assay in A549 cells overexpressing CDK7-mutant (C312S); format: cell-based, human; conditions: RNA PolII Ser5 phosphorylation, averaged over all measurements; for IC50: Homo sapiens, A549, A549 cells overexpressing CDK7-mutant (C312S), read-out: CDK7_A549 mutant hCDK7(pIC50) (converted); for CDK7_A549 mutant hCDK7(pIC50): A549 cells overexpressing CDK7-mutant (C312S)
Excerpt: (§1) To evaluate inhibition of CDK7 kinase activity, a 384-well automated imaging assay was used. This assay detects Serine 5 phosphorylation on a unique heptapeptide sequence in the C-terminal domain of Rpb1 subunit of RNA polymerase II, the downstream substrate of CDK7. This heptapeptide sequence is repeated up to 52 times in the CTD of Rpb1.
(§2) A549 adenocarcinoma human alveolar basal epithelial cells (ATCC, CCL-185), rabbit Phospho-Rpb1 CTD (Ser5) antibody (D9N51 (Cell Signaling Technology)), DMEM (Sigma), Fetal Bovine Serum (Biowest), L-glutamine (Sigma), Penicillin/Streptomycin (Life Technologies), Sodium Pyruvate (Sigma), Hepes (Sigma), poly-D-lysine coated μclear 384 black plates (Greiner), formaldehyde (PolySciences), D-PBS (Sigma), Methanol (Sigma), Alexa Fluor 488 goat anti rabbit IgG secondary antibody (Life Technologies), HCS CellMask™ Deep Red stain (Life Technologies), Hoechst 33258 (Invitrogen).
(§3) RNA Polymerase II Serine 5 phosphorylation was detected using a specific rabbit Phospho-Rpb1 CTD (Ser5) antibody. A549 adenocarcinoma human alveolar basal epithelial cells were seeded in 20 μl medium (DMEM supplemented with 1% Fetal Bovine Serum (heat inactivated 30′ 56° C.), 2 mM L-glutamine, 50 U/ml penicillin 50 μg/ml streptomycin, 1 mM sodium pyruvate and 50 mM hepes) at 1000 cells/well and cultured in poly-D-lysine coated μclear 384 black plates for 20 hours at 37° C. and 5% CO2.
(§4) After incubation cells were challenged with compound for 3 hours at 37° C. and 5% CO2. DMSO was used as high control and as low control 10 μM of the following reference compound was used:
(§5) 40 nl of test compounds and controls were spotted in cell plates using Echo Liquid Handler (Echo 550, Labcyte). Incubation was followed by 20 minutes fixation with 20 μl 10% formaldehyde at room temperature. Medium/formaldehyde solution was removed, plates were washed 3 times with 30 μl D-PBS (w/o Ca^2+ and Ma^2+) and permeabilization was done by adding 20 μl ice cold methanol for 20 minutes. Cells were washed again 3 times with 30 μl D-PBS and 20 μl blocking buffer (25 ml fetal bovine serum in 500 ml D-PBS) was added for 1 hour.
(§6) After removing blocking buffer 20 μl 1/1000 primary antibody rabbit Phospho-Rpb1 CTD (Ser5) antibody was added which binds to the phosphorylated Serine5 of the heptapeptide sequences in the CTD of Rpb1. Primary antibody was removed, and plates were washed 3 times with 30 μl D-PBS followed by addition of 20 μl 1/2000 Alexa Fluor 488 goat anti rabbit IgG secondary antibody for final detection of Phospho-Rpb1 CTD (Ser5) together with 1/5000 HCS CellMask™ Deep Red stain for membrane staining and 1/5000 Hoechst 33258 for nucleus staining. Last, plates were washed 2 times with 30 μl D-PBS and wells were filled with 40 μL D-PBS, plates were sealed (Thermowell sealing tape) and stored at 4° C. until reading. Plates were read with Opera Phenix (Perkin Elmer) with 10× air objective. Data were calculated and analyzed in Phaedra.
(§7) IC50 values were calculated using the following formula: […]
(§8) Average value of all HC's and all LC's are used for normalizations.
(§9) A best-fit curve is fitted by a minimum sum of squares method to the plot of % Control vs. compound concentration. From this an IC50 value can be obtained. An estimate of the slope of the plot in terms of the Hill coefficient is also obtained.
In parallel this assay was performed in A549 cells overexpressing CDK7-mutant (C312S) to evaluate the effect of the covalent bond on potency and to screen for potential off-target effects. Mutation of Cysteine to Serine (C312S), a less nucleophilic amino acid, prevents CDK7 inhibitors from covalently binding to CDK7 and from inhibiting CDK7 activity in an irreversible manner. A stably transduced A549 cell pool was generated that overexpresses CDK7 mutant (C312S), but also expresses endogenous CDK7-WT. Covalent binders targeting the cysteine at position 312 will show a shift in potency in A549 cells overexpressing mutant C312S CDK7.

[2] = tested on: RNA Polymerase II Serine 5 phosphorylation (Rpb1 CTD, downstream substrate of CDK7) in A549 cells; assay: Imaging-based cellular RNA PolII Ser5 phosphorylation assay in A549 cells; format: cell-based, human; conditions: wild-type CDK7, RNA PolII Ser5 phosphorylation, averaged over all measurements; for IC50: Homo sapiens, A549, A549 cells, read-out: CDK7_A549 Wild-type CDK7 (pIC50) (converted); for CDK7_A549 Wild-type CDK7 (pIC50): A549 cells
Excerpt: as §1, §2, §3, §4, §5, §6, §7, §8, §9

SMILES: C=CC(=O)N1CC[C@H](N2CC(c3cc4c(c(C)n3)O[C@@H](C)c3c(C5CCOCC5)ccnc3N4)C2)C1 (single isomer, unassigned) [Compound 337]
- IC50 [1]: > 10 µM
- IC50 [2]: > 5.01 µM

SMILES: CC#CC(=O)N1CC(N2CCC(c3cc4c(c(C#N)n3)OC(C)c3c(N5CCOCC5)ccnc3N4)CC2)C1 (centres unmarked) [Compound 514]
- IC50 [1]: > 10 µM
- IC50 [2]: 0.324 µM

SMILES: C/C=C/C(=O)N1CC(N2CCC(c3cc4c(c(C)n3)OCc3c(-c5cnn(C)c5)ccnc3N4)CC2)C1 [Compound 537]
- IC50 [1]: > 10 µM
- IC50 [2]: > 10 µM

SMILES: C=CC(=O)N1CCC(Oc2cc(-c3cc4c(c(C)n3)OCc3c(N5CCOCC5)ccnc3N4)ccn2)CC1 [Compound 407]
- IC50 [1]: 7.76 µM
- IC50 [2]: 1.91 µM

SMILES: CC#CC(=O)N1CC[C@H](N2CC(c3cc4c(c(C)n3)O[C@H](C)c3c(N5CCOCC5)ccnc3N4)C2)C1 (single isomer, unassigned) [Compound 516]
- IC50 [1]: > 10 µM
- CDK7_A549 Wild-type CDK7 (pIC50) [2]: 5.68

SMILES: Cc1nc(C2CCN(C3CN(C(=O)/C=C/C(=O)O)C3)CC2)cc2c1OCc1c(-c3cnn(C)c3)ccnc1N2 [Compound 432]
- IC50 [1]: > 10 µM
- IC50 [2]: > 10 µM

SMILES: CC#CC(=O)N1CCC(C2CN(c3cc4c(c(C)n3)OCc3c(N5CCOCC5)ccnc3N4)C2)CC1 [Compound 451]
- IC50 [1]: > 10 µM
- IC50 [2]: 0.302 µM

SMILES: C=CC(=O)N1CCC(n2cc(-c3cc4c(c(C)n3)OCc3c(N5CCOCC5)ccnc3N4)cn2)CC1 [Compound 390]
- IC50 [1]: 8.71 µM
- IC50 [2]: 0.214 µM

SMILES: C=CC(=O)N1CC[C@@H](N2CCC(c3cc4c(c(C)n3)OCc3c(N5CCOCC5)ccnc3N4)CC2)C1 (single isomer, unassigned) [Compound 294]
- CDK7_A549 mutant hCDK7(pIC50) [1]: <5
- CDK7_A549 Wild-type CDK7 (pIC50) [2]: 7.24

SMILES: C=CC(=O)N1CC(N2CCN(C)[C@H](c3ccc4c(c3)Nc3nccc(N5CCOCC5)c3CO4)C2)C1 (single isomer, unassigned) [Compound 142]
- IC50 [1]: > 10 µM
- IC50 [2]: 1.45 µM

SMILES: C=CC(=O)N1CCC(N2CC(c3cc4c(c(C)n3)O[C@H](C)c3c(N5CCOCC5)ccnc3N4)C2)CC1 (single isomer, unassigned) [Compound 423]
- IC50 [1]: 5.89 µM
- IC50 [2]: 0.0589 µM

SMILES: CC#CC(=O)N1CCC(N2CC(c3cc4c(c(C)n3)O[C@@H](C)c3c(N5CCOCC5)ccnc3N4)C2)CC1 (single isomer, unassigned) [Compound 360]
- IC50 [1]: > 10 µM
- IC50 [2]: 0.676 µM

SMILES: CC#CC(=O)N1CC(n2cc(-c3cc4c(c(C)n3)O[C@H](C)c3c(N5CCOCC5)ccnc3N4)cn2)C1 (single isomer, unassigned) [Compound 434]
- IC50 [1]: > 10 µM
- IC50 [2]: 4.57 µM

SMILES: CC#CC(=O)N1CC[C@H](N2CC(c3cc4c(c(C)n3)O[C@H](C)c3c(N5CCOCC5)ccnc3N4)C2)C1 (single isomer, unassigned) [Compound 530]
- CDK7_A549 mutant hCDK7(pIC50) [1]: <5
- CDK7_A549 Wild-type CDK7 (pIC50) [2]: <5

SMILES: CC#CC(=O)N1CCC(N2CCC(c3cc4c(c(C)n3)O[C@@H](C)c3c(N5CCOCC5)ccnc3N4)CC2)C1 (single isomer, unassigned) [Compound 535]
- IC50 [1]: ~10 µM
- IC50 [2]: 0.0631 µM

SMILES: CC#CC(=O)N1CC(N2CC[C@@H](c3cc4c(c(C)n3)OCc3c(N5CCOCC5)ccnc3N4)N(C)CC2)C1 (single isomer, unassigned) [Compound 446]
- IC50 [1]: > 10 µM
- IC50 [2]: 0.794 µM

SMILES: C=CC(=O)N1CC[C@@H](N2CC(c3cc4c(c(C)n3)O[C@@H](C)c3c(C5CCOCC5)ccnc3N4)C2)C1 (single isomer, unassigned) [Compound 334]
- IC50 [1]: > 10 µM
- IC50 [2]: 5.25 µM

SMILES: C=CC(=O)N1CCC(N2CC(c3cc4c(cn3)OC(C)(C)c3c(-c5cnn(C)c5)ccnc3N4)C2)CC1 [Compound 320]
- IC50 [1]: > 10 µM
- IC50 [2]: > 10 µM

SMILES: CC#CC(=O)N1CC(N2CCC(c3cc4c(c(C)n3)O[C@@H](C)c3c(-c5cnn(C)c5)ccnc3N4)CC2)C1 (single isomer, unassigned) [Compound 534]
- IC50 [1]: > 10 µM
- IC50 [2]: ~9.55 µM

SMILES: CC#CC(=O)N1CC(n2cc(-c3cc4c(c(C)n3)OCc3c(N5CCOCC5)ccnc3N4)cn2)C1 [Compound 346]
- IC50 [1]: > 10 µM
- IC50 [2]: 0.191 µM

SMILES: CC#CC(=O)N1CC[C@H](N2CC(c3cc4c(c(C)n3)O[C@@H](C)c3c(N5CCOCC5)ccnc3N4)C2)C1 (single isomer, unassigned) [Compound 533]
- CDK7_A549 mutant hCDK7(pIC50) [1]: <5
- CDK7_A549 Wild-type CDK7 (pIC50) [2]: 6.33

SMILES: C=CC(=O)N1CC[C@@H](N2CCC(c3cc4c(c(C)n3)OCc3c(-c5cnn(C)c5)ccnc3N4)CC2)C1 (single isomer, unassigned) [Compound 182]
- IC50 [1]: > 10 µM
- IC50 [2]: 0.038 µM

SMILES: C/C=C/C(=O)N1CC[C@H](N2CCC(c3cc4c(c(C)n3)OCc3c(-c5cnn(C)c5)ccnc3N4)CC2)C1 (single isomer, unassigned) [Compound 307]
- IC50 [1]: > 10 µM
- IC50 [2]: > 10 µM

SMILES: C=CC(=O)N1CC(N2CC(c3cc4c(c(C)n3)O[C@@H](C)c3c(N5CCOCC5)ccnc3N4)C2)C1 (single isomer, unassigned) [Compound 271]
- IC50 [1]: > 10 µM
- IC50 [2]: 3.16 µM

SMILES: C=CC(=O)N1CC(N2CCN(C)[C@@H](c3ccc4c(c3)Nc3nccc(N5CCOCC5)c3CO4)C2)C1 (single isomer, unassigned) [Compound 144]
- IC50 [1]: > 10 µM
- IC50 [2]: > 10 µM

SMILES: CC#CC(=O)N1CCC(Oc2cc(-c3cc4c(c(C)n3)OCc3c(N5CCOCC5)ccnc3N4)ccn2)CC1 [Compound 409]
- IC50 [1]: 7.08 µM
- IC50 [2]: 1.45 µM

SMILES: CC#CC(=O)N1CC(N2CC(c3cc4c(c(C)n3)O[C@@H](C)c3c(N5CCOCC5)ccnc3N4)C2)C1 (single isomer, unassigned) [Compound 441]
- CDK7_A549 mutant hCDK7(pIC50) [1]: <5
- CDK7_A549 Wild-type CDK7 (pIC50) [2]: <5

SMILES: C/C=C/C(=O)N1CC(N2CCC(c3ccc4c(c3)Nc3nccc(N5CCOCC5)c3CO4)CC2)C1 [Compound 106]
- IC50 [1]: > 10 µM
- IC50 [2]: ~10 µM

SMILES: C=CC(=O)N1CCC2(CC1)CCN(c1cc3c(c(C)n1)OCc1c(-c4cnn(C)c4)ccnc1N3)CC2 [Compound 479]
- IC50 [1]: > 10 µM
- IC50 [2]: > 10 µM

SMILES: C#Cc1cc(C2CN([C@@H]3CCN(C(=O)C=C)C3)C2)cc2c1OCc1c(-c3cnn(C)c3)ccnc1N2 (single isomer, unassigned) [Compound 473]
- IC50 [1]: > 10 µM
- IC50 [2]: 0.166 µM

SMILES: C#Cc1cc(C2CN([C@H]3CCN(C(=O)C=C)C3)C2)cc2c1OCc1c(-c3cnn(C)c3)ccnc1N2 (single isomer, unassigned) [Compound 492]
- IC50 [1]: 9.55 µM
- IC50 [2]: 0.126 µM

SMILES: C=CC(=O)N1CCC(n2ccc(-c3ccc4c(c3)OCc3c(N5CCOCC5)ccnc3N4)cc2=O)CC1 [Compound 408]
- IC50 [1]: > 10 µM
- IC50 [2]: > 10 µM

SMILES: C=CC(=O)N1CC(N2CCC(c3cc4c(c(P(C)(C)=O)n3)OCc3c(N5CCOCC5)ccnc3N4)CC2)C1 [Compound 383]
- IC50 [1]: > 10 µM
- IC50 [2]: > 10 µM

SMILES: CC(=O)N1CCC(N2CC(c3cc4c(c(C)n3)OCc3c(-c5cnn(C)c5)ccnc3N4)C2)CC1 [Compound 321]
- IC50 [1]: 8.71 µM
- IC50 [2]: 9.33 µM
